Results from ChEMBL document CHEMBL3632583, “Haenamindole, an unusual diketopiperazine derivative from a marine-derived Penicillium sp. KCB12F005” (Bioorg Med Chem Lett, 2015).
Calls of active or inactive are those of the source. The rule behind the calls is not given here.

Columns and labels:
[1] = Cytotoxicity against human Hep3B cells after 96 hrs by WST method; type: functional, cell-based, Hep 3B2
[2] = system: HeLa; experiment: Cytotoxicity against human HeLa cells after 96 hrs by WST method; type: functional, cell-based
[3] = system: K562; experiment: Cytotoxicity against human K562 cells after 96 hrs by WST method; type: functional, cell-based; conditions: K562, 96 h
[4] = system: HL-60; experiment: Cytotoxicity against human HL60 cells after 96 hrs by WST method; type: functional, cell-based; conditions: HL-60, 96 h
[5] = system: Escherichia coli; experiment: Antimicrobial activity against Escherichia coli at 50 ug/disk after 48 hrs by paper disk method; type: functional, organism-based
[6] = system: Bacillus cereus; experiment: Antimicrobial activity against Bacillus cereus at 50 ug/disk after 48 hrs by paper disk method; type: functional, organism-based
[7] = system: Staphylococcus aureus; experiment: Antimicrobial activity against Staphylococcus aureus at 50 ug/disk after 48 hrs by paper disk method; type: functional, organism-based
[8] = system: Salmonella enteritidis; experiment: Antimicrobial activity against Salmonella enteritidis at 50 ug/disk after 48 hrs by paper disk method; type: functional, organism-based; conditions: Salmonella enterica subsp. enterica serovar Enteritidis

O=C1N[C@@H](Cc2ccccc2)C(=O)N(O)[C@@H]1C[C@]1(O)c2ccccc2N2C(=O)C[C@@H](c3ccccc3)N[C@H]21
IC50 [1]: > 85 µM
IC50 [2]: > 85 µM
IC50 [3]: > 85 µM
IC50 [4]: > 85 µM
Activity [5]: inactive
Activity [6]: inactive
Activity [7]: inactive
Activity [8]: inactive
